Results as given in PMC6597546, “Identification of a potent benzoxaborole drug candidate for treating cryptosporidiosis” (Nature Communications, 2019).
Where “and” joins values, the source holds several entries; their conditions need not be identical. Equal entries are not always repeated. Where two headings read alike, the source gives them in different places.

What was measured:
[1] = system: C. parvum; experiment: C. parvum growth inhibition in HCT-8 cells (follow-up assay, Vicia villosa lectin staining); assay type: cell-based, Cryptosporidium parvum
Procedure: Follow-up assays were performed at the University of Vermont (UVM) and Calibr at Scripps Research by infection of the colonic adenocarcinoma cell line HCT-8 (ATCC CCL-244) and staining with the Vicia villosa lectin and DAPI[17],[32]. The FBS concentrations and parasites used for these assays were as indicated; parasite isolates and sources included C. parvum Iowa isolate oocysts purchased from Bunch Grass Farm (Deary, ID), C. parvum Iowa isolate oocysts purchased from the Sterling Laboratory (University of Arizona, Tucson, AZ), wild type C. parvum oocysts provided by Dr. Jenni Zambriski (Virginia Tech, Blacksburg, VA), and the C. hominis TU502 isolate purchased from Dr. Saul Tzipori (Tufts University Cummings School of Veterinary Medicine, North Grafton, MA). […] Amphotericin B (Sigma, catalog# A2942) was added to the culture media at 0.1 to 0.5 µg per mL for the DMC1 dose response assays.

[2] = Liver microsome Clint (mouse); assay type: in vitro ADME; conditions: liver microsomes
[3] = system: human lymphocytes; experiment: In vitro micronucleus genotoxicity assay; assay type: cell-based; conditions: with and without S9, 3 and 28 h, 0.25 to 260 µg per mL
[4] = Cytotoxicity THP-1 (3d); assay type: cell-based; conditions: human, THP-1 cells, 25 µM highest concentration tested
[5] = target: CYP3A4 (Homo sapiens, UniProt P08684); experiment: CYP450 inhibition 3A4; assay type: in vitro ADME
CYP3A4, sequence (P08684 whole entry): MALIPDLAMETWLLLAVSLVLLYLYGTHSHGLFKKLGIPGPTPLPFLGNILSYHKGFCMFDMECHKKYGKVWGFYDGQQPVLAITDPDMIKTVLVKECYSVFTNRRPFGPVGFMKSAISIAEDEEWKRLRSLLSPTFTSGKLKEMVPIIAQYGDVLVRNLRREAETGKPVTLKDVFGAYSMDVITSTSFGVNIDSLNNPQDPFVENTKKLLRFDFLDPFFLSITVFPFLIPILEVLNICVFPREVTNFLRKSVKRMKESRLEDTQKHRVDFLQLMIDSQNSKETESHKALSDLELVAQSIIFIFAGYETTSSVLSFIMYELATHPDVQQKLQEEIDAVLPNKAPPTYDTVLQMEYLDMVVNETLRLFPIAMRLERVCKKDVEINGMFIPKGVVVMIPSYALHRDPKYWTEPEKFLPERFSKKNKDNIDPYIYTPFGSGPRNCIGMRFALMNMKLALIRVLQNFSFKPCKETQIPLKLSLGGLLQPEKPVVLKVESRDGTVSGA

[6] = Plasma Protein Binding (bovine); assay type: in vitro ADME; conditions: read-out: Plasma Protein Binding (PPB) (converted)
[7] = system: C. parvum (Bunch Grass Farms Iowa isolate); experiment: Time-kill curve assay in HCT-8 cells; assay type: cell-based, Cryptosporidium parvum
Procedure: The invasion assay, DNA replication assay, asexual to sexual stage conversion, and time-kill curve assays were performed using fluorescence microscopy to enumerate parasites and host cell nuclei. Staining protocols are individually described for each assay. Unless noted otherwise, the details of image acquisition were as follows. An inverted Nikon Eclipse Ti2000 microscope with an automated stage and Perfect Focus was used with NIS-Elements Advanced Research software (Nikon, USA, version 4.30.01) to image the wells. The microscope was programmed to focus on the center of each well and then take a 3 × 3 composite image per well using a 20 × (0.45 NA) objective. Images were exported as .tiff files and parasites and host nuclei counted using a custom macro on ImageJ (National Institutes of Health, version 1.52a). Data were analyzed using Microsoft Excel and GraphPad Prism (version 6.01). […] C. parvum Iowa isolate oocysts (Bunch Grass Farms, Deary, ID) were treated to induce excystation and added to >90% confluent HCT-8 cells in 384-well plates. […] The monolayers were then washed, fixed, and stained with Vicia villosa lectin and DAPI at the indicated time points, and imaged as for the C. parvum growth assay. Separate 384-well plates were used for each time point. Parasite numbers were normalized to host cell nucleus numbers and expressed as the percentage of host cells infected. Drug-induced parasite decay was isolated from the reduction in parasites over time that occurs spontaneously in the HCT-8 culture system by expressing the number of parasites as the percentage of the number of parasites present at each time point under control (DMSO-treated) conditions.

[8] = system: CYP450 (2B6, 1A2, 2C9, 2C19, 2D6, 3A4); experiment: CYP450 inhibition, 6 isoforms; assay type: in vitro ADME; conditions: @ 10 µM
[9] = target: CYP2C19 (Homo sapiens, UniProt P33261); experiment: CYP450 inhibition 2C19; assay type: in vitro ADME
CYP2C19, sequence (P33261 whole entry): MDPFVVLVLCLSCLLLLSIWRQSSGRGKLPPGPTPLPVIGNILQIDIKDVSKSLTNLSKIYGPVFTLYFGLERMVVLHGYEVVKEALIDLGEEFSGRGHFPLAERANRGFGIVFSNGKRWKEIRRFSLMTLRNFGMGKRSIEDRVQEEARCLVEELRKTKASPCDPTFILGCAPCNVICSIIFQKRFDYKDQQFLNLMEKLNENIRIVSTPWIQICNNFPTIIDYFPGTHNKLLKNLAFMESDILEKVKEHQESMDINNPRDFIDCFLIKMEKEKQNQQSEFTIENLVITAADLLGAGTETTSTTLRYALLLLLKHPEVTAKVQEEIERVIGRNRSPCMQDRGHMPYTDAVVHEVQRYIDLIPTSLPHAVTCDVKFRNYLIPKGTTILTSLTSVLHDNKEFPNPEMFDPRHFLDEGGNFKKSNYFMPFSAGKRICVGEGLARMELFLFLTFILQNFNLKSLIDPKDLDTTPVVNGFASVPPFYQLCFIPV

[10] = system: MDR1 (P-gp); experiment: in vitro; conditions: dog

For `CC1(C)OB(O)c2cc(NC(=O)c3ccc(-n4cccn4)cc3Cl)ccc21` [AN7973], the EC50 ([1]; Bunch Grass Farm (BGF) C. parvum Iowa isolate, HCT-8 cells, 48 h exposure, read-out: EC50) was 0.13 µM, the EC50 ([1]; Cryptosporidium parvum, HCT-8, in Vicia villosa, 48 h, Bunch Grass Farm (BGF) C. parvum Iowa isolate, HCT-8 cells, 48 h exposure, read-out: EC50) was 0.13 to 0.43 µM and the EC50 ([1]; Cryptosporidium parvum, HCT-8, in Vicia villosa, Iowa (BGF, 10%FBS), HCT-8, single replicates, unit inferred, read-out: In vitro efficacy (Fig 2b, EC50)) was 0.116 µM. The EC50 ([1]; Cryptosporidium parvum, HCT-8, in Vicia villosa, read-out: In vitro efficacy (Fig 2b, EC50)) was 0.363 µM, the EC90 ([1]; Cryptosporidium parvum, in Vicia villosa, BGF Iowa isolate, HCT-8) was 0.21 µM and the EC50 ([1]; Field isolate (2%FBS), HCT-8, single replicates, unit inferred, read-out: In vitro efficacy (Fig 2b, EC50)) was 0.226 µM and 0.231 µM and 0.673 µM and 0.304 µM. The EC50 ([1]; Iowa (BGF, 2%FBS), HCT-8, single replicates, unit inferred, read-out: In vitro efficacy (Fig 2b, EC50)) was 0.459 µM and 0.606 µM and 0.233 µM and 0.334 µM, the EC50 ([1]; Iowa (BGF, 10%FBS), HCT-8, single replicates, unit inferred, read-out: In vitro efficacy (Fig 2b, EC50)) was 0.163 µM and 0.128 µM and the EC50 ([1]; Iowa (Sterling Lab, 2%FBS), HCT-8, single replicates, unit inferred, read-out: In vitro efficacy (Fig 2b, EC50)) was 0.412 µM and 0.206 µM and 0.29 µM and 0.456 µM and 0.232 µM. The “% inhibition, 0 - 48 h V. villosa lectin (asexual)” value (shortened to “% inhibition”) ([1]; log [AN7973] 0.22) was 97.86% and 96.89%, the “% inhibition” value ([1]; log [AN7973] 0.52) was 97.05% and 95.66% and the “% inhibition” value ([1]; log [AN7973] 0.70) was 95.89% and 94.55%. The “% inhibition” value ([1]; log [AN7973] 1.00) was 95.12% and 93.55%, the “% inhibition” value ([1]; log [AN7973] -0.25) was 95.71% and 93.12% and the “% inhibition” value ([1]; log [AN7973] -0.73) was 85.80% and 82.68%. For the same compound, the “% inhibition” value ([1]; log [AN7973] -1.69) was -8.97% and -7.81%, the “% inhibition” value ([1]; log [AN7973] -2.16) was -1.87% and -6.19% and the microsomal CLint [2] was < 1 µL/min/mg. For the same compound, the In vitro micronucleus [3] was “negative”, the IC50 at 3 d [4] was > 25 µM and the inhibition at 10 µM [5] was 1%. For the same compound, the fraction unbound [6] was 0.04, the concentration giving maximum rate of parasite elimination ([7]; Cryptosporidium parvum, HCT-8, read-out: concentration at which maximum rate of parasite elimination was achieved (∼3 × EC90)) was ~630 nM and the time-kill curve result ([7]; compound added ~24 h after infection of HCT-8) was “appeared to act rapidly and drove progressive elimination of C. parvum”. The “% Parasite / host nuclei” value ([7]; compound at 3 x EC90, 0 h exposure) was 25.13% and 23.57% and 25.93% and 26.94%, the “% Parasite / host nuclei” value ([7]; compound at 3 x EC90, 6 h exposure) was 24.78% and 34.35% and 30.89% and the “% Parasite / host nuclei” value ([7]; compound at 3 x EC90, 24 h exposure) was 15.27% and 14.74% and 17.96% and 15.11%. The “% Parasite / host nuclei” value ([7]; compound at 3 x EC90, 48 h exposure) was 20.76% and 12.39% and 18.77% and 13.91%, the “% Parasite / host nuclei” value ([7]; compound at 3 x EC90, 72 h exposure) was 10.40% and 6.55% and 11.33% and 7.26% and the “% Parasite / host nuclei” value ([7]; compound at 6 x EC90, 0 h exposure) was 26.94% and 25.13% and 23.57% and 25.93%. The “% Parasite / host nuclei” value ([7]; compound at 6 x EC90, 6 h exposure) was 28.91% and 27.91% and 32.17% and 31.13%, the “% Parasite / host nuclei” value ([7]; compound at 6 x EC90, 24 h exposure) was 21.47% and 14.00% and 13.65% and 12.46% and the “% Parasite / host nuclei” value ([7]; compound at 6 x EC90, 48 h exposure) was 10.56% and 11.11% and 14.16% and 9.59%. For the same compound, the “% Parasite / host nuclei” value ([7]; compound at 6 x EC90, 72 h exposure) was 5.25% and 6.00% and 13.91% and 10.57%, the “% Parasite / host nuclei” value ([7]; compound at 9 x EC90, 0 h exposure) was 26.94% and 25.13% and 23.57% and 25.93% and the “% Parasite / host nuclei” value ([7]; compound at 9 x EC90, 24 h exposure) was 14.18% and 12.40% and 14.28% and 11.31%. The “% Parasite / host nuclei” value ([7]; compound at 9 x EC90, 48 h exposure) was 12.96% and 14.27% and 16.75% and 18.20%, the “% Parasite / host nuclei” value ([7]; compound at 12 x EC90, 0 h exposure) was 26.94% and 25.13% and 23.57% and 25.93% and the “% Parasite / host nuclei” value ([7]; compound at 12 x EC90, 24 h exposure) was 11.36% and 18.45% and 14.90% and 9.34%. The “% Parasite / host nuclei” value ([7]; compound at 12 x EC90, 48 h exposure) was 10.50% and 12.64% and 5.47% and 10.46%, the “% Parasite / host nuclei” value ([7]; compound at 12 x EC90, 72 h exposure) was 8.81% and 7.07% and 9.43% and 15.51% and the “% Parasite / host nuclei” value ([7]; compound at EC50, 0 h exposure) was 26.94% and 25.13% and 23.57% and 25.93%. For the same compound, the “% Parasite / host nuclei” value ([7]; compound at EC50, 6 h exposure) was 20.18%, the “% Parasite / host nuclei” value ([7]; compound at EC50, 24 h exposure) was 55.77% and 58.71% and 35.00% and 58.88% and the “% Parasite / host nuclei” value ([7]; compound at EC50, 48 h exposure) was 63.82% and 58.60% and 55.54% and 55.88%. For the same compound, the “% Parasite / host nuclei” value ([7]; compound at EC50, 72 h exposure) was 29.51% and 58.62% and 41.28% and 34.71%, the “% Parasite / host nuclei” value ([7]; compound at EC90, 0 h exposure) was 26.94% and 25.13% and 23.57% and 25.93% and the “% Parasite / host nuclei” value ([7]; compound at EC90, 24 h exposure) was 31.22% and 39.05% and 28.47% and 33.72%. The “% Parasite / host nuclei” value ([7]; compound at EC90, 48 h exposure) was 43.81% and 37.66% and 41.76% and 32.99%, the “% Parasite / host nuclei” value ([7]; compound at EC90, 72 h exposure) was 28.05% and 29.96% and 37.03% and 23.24% and the “time required for 99.9% parasite reduction” value ([7]; in vitro) was ~92 h. The “in vitro parasite elimination half-life” value ([7]; one-phase exponential decay, 12 × EC90, referenced to DMSO control) was ~9.2 h, the “CYP450 inhibition (in 6 isoforms – 2B6, 1A2, 2C9, 2C19, 2D6, 3A4)” value [8] was “Negative” and the inhibition at 10 µM [9] was 27%. For the same compound, the Papp ([10]; MDCK-MDR1, MDCK-MDR1 Papp) was 565 nm/s and the Papp ([10]; MDCK-MDR1, MDCK-MDR1 Papp + Pgp inhibitor) was 606 nm/s.
